Reference: BindingDB's records for doi:10.1021/acs.jmedchem.0c02069 (Indiana University, 2021)
Peptide text beside a SMILES is read from it.

Molecular target: Glucagon receptor (Homo sapiens, UniProt P47871)
Experiment: Displacement of 125I-glucagon from human GCGR expressed in HEK293 cells membranes incubated for 6 hrs by liquid scintillation counting method

Glucagon receptor, sequence (P47871 whole entry): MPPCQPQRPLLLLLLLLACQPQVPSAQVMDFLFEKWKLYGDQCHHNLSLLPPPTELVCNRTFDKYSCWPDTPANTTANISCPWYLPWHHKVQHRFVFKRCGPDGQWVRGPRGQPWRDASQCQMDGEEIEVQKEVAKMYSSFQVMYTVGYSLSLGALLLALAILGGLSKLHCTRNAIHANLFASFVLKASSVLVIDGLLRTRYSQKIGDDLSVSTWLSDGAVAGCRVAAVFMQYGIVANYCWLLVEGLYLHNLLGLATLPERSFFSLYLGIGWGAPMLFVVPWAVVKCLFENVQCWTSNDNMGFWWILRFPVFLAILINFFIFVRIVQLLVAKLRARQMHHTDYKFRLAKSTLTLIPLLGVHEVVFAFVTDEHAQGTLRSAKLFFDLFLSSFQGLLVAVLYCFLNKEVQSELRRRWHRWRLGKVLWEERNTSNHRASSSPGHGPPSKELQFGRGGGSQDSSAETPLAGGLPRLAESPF

| SMILES | IC50 |
| --- | --- |
| CSCC[C@H](NC(=O)[C@H](CC(C)C)NC(=O)[C@H](Cc1c[nH]c2ccccc12)NC(=O)[C@H](CCC(N)=O)NC(=O)[C@@H](NC(=O)[C@H](Cc1ccccc1)NC(=O)[C@H](CC(=O)O)NC(=O)[C@H](CCC(N)=O)NC(=O)[C@H](C)NC(=O)[C@H](CCCNC(=N)N)NC(=O)[C@H](CCCNC(=N)N)NC(=O)[C@H](CO)NC(=O)[C@H](CC(=O)O)NC(=O)[C@H](CC(C)C)NC(=O)[C@H](Cc1ccc(O)cc1)NC(=O)[C@H](CCCCN)NC(=O)[C@H](CO)NC(=O)[C@H](Cc1ccc(O)cc1)NC(=O)[C@H](CSCC(=O)O)NC(=O)[C@H](CO)NC(=O)[C@@H](NC(=O)[C@H](Cc1ccccc1)NC(=O)[C@@H](NC(=O)CNC(=O)[C@H](CCC(N)=O)NC(=O)[C@@H](N)CO)[C@@H](C)O)[C@@H](C)O)C(C)C)C(=O)N[C@@H](CC(N)=O)C(=O)N[C@H](C(N)=O)[C@@H](C)O | 13 nM |
| CSCC[C@H](NC(=O)[C@H](CC(C)C)NC(=O)[C@H](Cc1c[nH]c2ccccc12)NC(=O)[C@H](CCC(N)=O)NC(=O)[C@@H](NC(=O)[C@H](Cc1ccccc1)NC(=O)[C@H](CC(=O)O)NC(=O)[C@H](CCC(N)=O)NC(=O)[C@H](C)NC(=O)[C@H](CCCNC(=N)N)NC(=O)[C@H](CCCNC(=N)N)NC(=O)[C@H](CO)NC(=O)[C@H](CC(=O)O)NC(=O)[C@H](CC(C)C)NC(=O)[C@H](Cc1ccc(O)cc1)NC(=O)[C@H](CCCCN)NC(=O)[C@H](CO)NC(=O)[C@H](Cc1ccc(O)cc1)NC(=O)[C@H](CCC(=O)O)NC(=O)[C@H](CO)NC(=O)[C@@H](NC(=O)[C@@H](O)Cc1ccccc1)[C@@H](C)O)C(C)C)C(=O)N[C@@H](CC(N)=O)C(=O)N[C@H](C(N)=O)[C@@H](C)O (HELM PEPTIDE1{[O=C([C@@H](O)Cc1ccccc1)[*:2]].T.S.E.Y.S.K.Y.L.D.S.R.R.A.Q.D.F.V.Q.W.L.M.N.T.[am]}$$$$V2.0) | 12 nM |
